Data as given in patent US8609723B2 (Beijing Dingguochangsheng Biotech., Co., Ltd., priority 2008, dated 2013).

System: serum corticosterone
Test: Determination of the content of serum corticosterone (chronic stress model)
Format: in vivo
Details: stressed rats, day after 21-day stress
Description: The rats in the normal control group were raised normally under a condition without any stimulation except for weighing body weight, measuring body temperature, and subjected to sugar test. All of other groups were subjected to stimulations of same type and same strength. During the experiment, different types of stimulations were applied in an unpredictable manner, and the same type of stimulation was enhanced each time.
The chronic stress course was 20 days in total, once per day, from 9:00 AM to 2:00 PM. The stress protocol was shown as follows: horizontally shaking at a high speed for 45 min; nipping tails (1 cm from the tail root): 1 min; depriving of water for 24 h; forbidding moving for 1.5 h; fasting for 24 h; stimulating with ice water (water temperature: 10° C.) for 5 min; electric shocking (1 mA, time course: is, 1 shock/min) the bottoms of feet for 30 min; changing cages and raising separately for 24 h; forbidding moving for 2 h; nipping tails (1 cm from the root of tail) for 1 min; depriving of water for 24 h; horizontally shaking at a high speed for 1.5 h; fasting for 24 h; nipping tails (1 cm from the tail root): 1 min; electric shocking (1 mA, time course: 1 s, 1 shock/min) the bottoms of feet for 40 min; stimulating with ice water for 5 min; changing cages and raising separately for 24 h; horizontally shaking at a high speed for 60 min; electric shocking (1 mA, time course: 1 s, 1 shock/min) the bottoms of feet for 50 min; depriving of water for 24 h; forbidding moving for 2.5 h; and 24 h social isolation.
In this experiment, the content of serum corticosterone was measured by a competitive method, with its mechanism shown as follow: antigens in samples and enzyme-labeled antigens compete to bind antibodies in a solid phase. The more antigens exist in samples, the less enzyme-labeled antigens bind to the solid phase, thereby resulting in a fainter coloration.
On the next day after the end of the 21-day stress period, rats were sacrificed by decollation, and 5˜10 ml whole blood was collected. A portion of the collected whole blood was kept at room temperature for 20 min, followed by centrifugation at 1000 rpm for 10 min. Serum was then separated and stored at −80° C. The serum corticosterone detection kit was used for such detection.

“curcumin decanoate [long acting curcumin]” was tested, and the serum corticosterone (4.6 mg/kg once every 7 days) was 239.5 ± 33.7 nmol/L, the serum corticosterone (9.2 mg/kg once every 7 days) was 222.9 ± 30.6 nmol/L and the serum corticosterone (18.4 mg/kg once every 7 days) was 199.6 ± 28.0 nmol/L.
